According to ChEMBL document CHEMBL4831530, “Exploring Marine-Derived Ascochlorins as Novel Human Dihydroorotate Dehydrogenase Inhibitors for Treatment of Triple-Negative Breast Cancer” (J Med Chem, 2021):
Activity calls are given as the source filed them. No cut-off for these calls is given here.

Assays:
[1] = tested on: MDA-MB-468; assay: Cytotoxicity against human MDA-MB-468 cells assessed as reduction in cell viability incubated for 24 hrs by CellTiter-Glo luminescent assay; assay type: functional, cell-based
[2] = biological target: Dihydroorotate dehydrogenase (quinone), mitochondrial (Homo sapiens, UniProt Q02127); assay: Inhibition of recombinant N-terminal His-tagged human DHODH (31 to 395 residues) expressed in Escherichia coli using DL-dihydroorotic acid as substrate and Q0 as coenzyme by DCIP based assay
Dihydroorotate dehydrogenase (quinone), mitochondrial, sequence (Q02127 whole entry, the tested form may be a part): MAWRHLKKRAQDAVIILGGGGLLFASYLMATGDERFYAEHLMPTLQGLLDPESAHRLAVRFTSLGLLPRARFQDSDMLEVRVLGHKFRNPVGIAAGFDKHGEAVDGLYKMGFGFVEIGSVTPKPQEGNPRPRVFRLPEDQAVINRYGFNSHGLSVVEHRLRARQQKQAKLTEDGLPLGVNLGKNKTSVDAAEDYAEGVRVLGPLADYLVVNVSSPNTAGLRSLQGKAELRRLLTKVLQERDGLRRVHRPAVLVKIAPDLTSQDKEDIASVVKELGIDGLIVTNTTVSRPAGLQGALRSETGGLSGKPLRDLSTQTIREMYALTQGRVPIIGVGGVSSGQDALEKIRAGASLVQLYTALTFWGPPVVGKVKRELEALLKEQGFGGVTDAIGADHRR

[3] = tested on: MDA-MB-231; assay: Cytotoxicity against human MDA-MB-231 cells assessed as reduction in cell viability incubated for 24 hrs by CellTiter-Glo luminescent assay; assay type: functional, cell-based
[4] = tested on: MDA-MB-468; assay: Inhibition of cell proliferation in human MDA-MB-468 cells at <=10 uM incubated for 4 days in presence of uridine by CellTiter-Glo luminescent assay; assay type: functional, cell-based; details: dose microM <=10, time 4.0 day
[5] = tested on: MDA-MB-231; assay: Induction of apoptosis in human MDA-MB-231 cells assessed as increase in apoptotic cells incubated for 2 days by annexin-V/FITC propidium iodide staining based flow cytometry analysis; assay type: functional, cell-based; details: time 2.0 day
[6] = Toxicity in NOD/SCID mouse xenografted with patient-derived breast cancer cells assessed as effect on body weight loss at 15 to 60 mg/kg, ip administered 5 times a week and measured after 21 days; assay type: organism-based; details: in vivo, 504 h, dose 15-60 mg/kg, time 21 day
[7] = tested on: MDA-MB-231; assay: Inhibition of cell proliferation in human MDA-MB-231 cells at <=10 uM incubated for 4 days in presence of uridine by CellTiter-Glo luminescent assay; assay type: functional, cell-based; details: dose microM <=10, time 4.0 day
[8] = tested on: MDA-MB-468; assay: Induction of apoptosis in human MDA-MB-468 cells assessed as increase in apoptotic cells incubated for 2 days by annexin-V/FITC propidium iodide staining based flow cytometry analysis; assay type: functional, cell-based; details: time 2.0 day
[9] = Toxicity in NOD/SCID mouse xenografted with patient-derived breast cancer cells assessed as effect on organ damage at 15 to 60 mg/kg, ip administered 5 times a week and measured after 21 days by hematoxylin and eosin staining based analysis; assay type: organism-based; details: in vivo, 504 h, dose 15-60 mg/kg, time 21 day
[10] = tested on: MDA-MB-231; assay: Induction of apoptosis in human MDA-MB-231 cells assessed as increase in cleaved caspase7 level measured after 2 days by Western blot analysis; assay type: functional, cell-based; details: dose 0.5-2 µM, time 2.0 day
[11] = tested on: LNCaP C4-2B; assay: Cytotoxicity against human LNCaP C4-2B cells assessed as reduction in cell viability incubated for 24 hrs by CellTiter-Glo luminescent assay; assay type: functional, cell-based
[12] = tested on: HL-60; assay: Cytotoxicity against human HL-60 cells assessed as reduction in cell viability incubated for 24 hrs by CellTiter-Glo luminescent assay; assay type: functional, cell-based
[13] = tested on: 143B; assay: Cytotoxicity against human 143B cells assessed as reduction in cell viability incubated for 24 hrs by CellTiter-Glo luminescent assay; assay type: functional, cell-based
[14] = Antitumor activity against patient-derived breast cancer cells xenografted in NOD/SCID mouse assessed as tumor growth suppression at 5 mg/kg, ip administered 5 times a week and measured after 16 days relative to control; assay type: functional; details: Homo sapiens, Breast cancer cell line, 384 h, time 16 day
[15] = tested on: MDA-MB-468; assay: Induction of apoptosis in human MDA-MB-468 cells assessed as increase in cleaved caspase7 level measured after 2 days by Western blot analysis; assay type: functional, cell-based; details: dose 0.5-2 µM, time 2.0 day
[16] = Toxicity in NOD/SCID mouse xenografted with patient-derived breast cancer cells assessed as effect on body weight loss at 5 mg/kg, ip administered 5 times a week and measured after 16 days; assay type: organism-based; details: in vivo, 384 h, time 16 day
[17] = tested on: MDA-MB-468; assay: Induction of apoptosis in human MDA-MB-468 cells assessed as increase in cleaved PARP1 level measured after 2 days by Western blot analysis; assay type: functional, cell-based; details: dose 0.5-2 µM, time 2.0 day
[18] = Toxicity in NOD/SCID mouse xenografted with patient-derived breast cancer cells assessed as effect on organ damage at 5 mg/kg, ip administered 5 times a week and measured after 16 days by hematoxylin and eosin staining based analysis; assay type: organism-based; details: in vivo, 384 h, time 16 day
[19] = Antitumor activity against patient-derived breast cancer cells xenografted in NOD/SCID mouse assessed as reduction in tumor volume at 5 mg/kg, ip administered 5 times a week and measured after 16 days relative to control; assay type: functional, Homo sapiens, Breast cancer cell line; set-up: scale not given: the % may be the effect or the level left; details: time 16 day
[20] = tested on: MDA-MB-231; assay: Induction of apoptosis in human MDA-MB-231 cells assessed as increase in cleaved PARP1 level measured after 2 days by Western blot analysis; assay type: functional, cell-based; details: dose 0.5-2 µM, time 2.0 day
[21] = Toxicity in NOD/SCID mouse xenografted with patient-derived breast cancer cells assessed as liver injury at 2.5 to 10 mg/kg, ip administered 5 times a week and measured after 16 days by hematoxylin and eosin staining based analysis; assay type: organism-based; details: in vivo, 384 h, dose 2.5-10 mg/kg, time 16 day
[22] = Toxicity in NOD/SCID mouse xenografted with patient-derived breast cancer cells assessed as body weight loss at 2.5 to 10 mg/kg, ip administered 5 times a week and measured after 16 days; assay type: organism-based; details: in vivo, 384 h, dose 2.5-10 mg/kg, time 16 day
[23] = tested on: Breast cancer cell line; assay: Antitumor activity against patient-derived breast cancer cells xenografted in NOD/SCID mouse assessed as tumor growth suppression at 20 mg/kg, ip administered every 2 days and measured after 21 days; assay type: functional, organism-based; details: Homo sapiens, time 21.0 day

| Structure (SMILES) | IC50 ([1]; Homo sapiens, MDA-MB-468, 24 h) | IC50 [2] | IC50 ([3]; Homo sapiens, MDA-MB-231, 24 h) | other results |
| --- | --- | --- | --- | --- |
| C/C(=C\Cc1c(O)c(Cl)c(C)c(C=O)c1O)[C@H](O)C[C@@]1(C)[C@H](C)CCC(=O)[C@@H]1C | 45 µM | 6.5 µM | 38 µM | – |
| CC(=O)O[C@@H](CC/C(C)=C/CC/C(C)=C/Cc1c(O)c(Cl)c(C)c(C=O)c1O)C(C)(C)O | 6 µM | 30 µM | 7.4 µM | inhibition [4]: inactive; Activity [5]: Dose-Dependent Effect; Activity [6]: Non-Toxic; inhibition [7]: inactive; Activity [8]: Dose-Dependent Effect; Activity [9]: Non-Toxic |
| CC(/C=C/[C@@]1(C)[C@H](C)CC[C@@H](O)[C@@H]1C)=C\Cc1c(O)c(Cl)c(C)c(C=O)c1O | > 60 µM | 13 µM | > 60 µM | – |
| C/C(=C\Cc1c(O)c(Cl)c(C)c(C=O)c1O)CC/C=C(\C)[C@@H]1CC(=O)C(C)(C)O1 [ASCOFURANONE] | 7.1 µM | 5.4 µM | 5.2 µM | – |
| C/C(=C\C[C@@]1(C)[C@H](C)CCC(=O)[C@@H]1C)[C@@H](O)Cc1c(O)c(Cl)c(C)c(C=O)c1O | 15 µM | 4.7 µM | 41 µM | – |
| C/C(=C\Cc1c(O)c(Cl)c(C)c(C=O)c1O)CC/C=C(\C)CC[C@H](O)C(C)(C)O | 20 µM | 3.7 µM | 23 µM | – |
| C/C(=C\Cc1c(O)cc(C)c(C=O)c1O)CC[C@@]1(C)[C@H](C)CCC(=O)[C@@H]1C [ILICICOLIN F] | 27 µM | 11 µM | 26 µM | – |
| C=C1CCC(=O)C(C)(C)[C@@H]1CC/C(C)=C/Cc1c(O)c(Cl)c(C)c(C(=O)O)c1O | > 60 µM | 15 µM | > 60 µM | – |
| O=c1[nH]cc(F)c(=O)[nH]1 [FLUOROURACIL] | > 20 µM | – | 15 µM | – |
| C/C(=C\Cc1c(O)c(Cl)c(C)c(C=O)c1O)CC/C=C(\C)CCC(=O)C(C)(C)O | > 60 µM | 9.3 µM | > 60 µM | – |
| C=C(/C=C/[C@@]1(C)[C@H](C)CCC(=O)[C@@H]1C)[C@H](O)Cc1c(O)c(Cl)c(C)c(C=O)c1O | 34 µM | 3.9 µM | 45 µM | – |
| C/C(=C\Cc1c(O)cc(C)c(C=O)c1O)CC/C=C(\C)CC[C@H](O)C(C)(C)O | 29 µM | 5 µM | > 60 µM | – |
| C=C1CC[C@H](O)C(C)(C)[C@@H]1CC/C(C)=C/Cc1c(O)c(Cl)c(C)c(C=O)c1O | 0.48 µM | 0.074 µM | 0.65 µM | Activity [10]: Dose-Dependent Effect; Activity [11]: Dose-Dependent Effect; inhibition [4]: inactive; Activity [5]: Dose-Dependent Effect; Activity [12]: Dose-Dependent Effect; inhibition [7]: inactive; Activity [13]: Dose-Dependent Effect; inhibition in vivo at 5 mg/kg [14]: 51.7%; Activity [15]: Dose-Dependent Effect; Activity [16]: Non-Toxic; Activity [17]: Dose-Dependent Effect; Activity [18]: Non-Toxic; Activity [8]: Dose-Dependent Effect; Activity [19]: 37.41%; Activity [20]: Dose-Dependent Effect |
| C/C(=C\Cc1c(O)c(Cl)c(C)c(C=O)c1O)CC/C=C(\C)CC[C@@H]1OC1(C)C | 16 µM | 1.6 µM | 24 µM | – |
| CC(/C=C/[C@@]1(C)[C@H](C)CCC(=O)[C@@H]1C)=C\Cc1c(O)c(Cl)c(C)c(C=O)c1O [ASCOCHLORIN] | 1.1 µM | 1.3 µM | 2.2 µM | – |
| Cc1c(Cl)c(O)c(C[C@@H]2[C@@]3(C)CC[C@H](O)C(C)(C)[C@@H]3CC[C@@]2(C)O)c(O)c1C=O | > 60 µM | 31 µM | > 60 µM | – |
| C/C(=C\Cc1c(O)c(Cl)c(C)c(C=O)c1O)CC[C@@]1(C)[C@H](C)CCC(=O)[C@@H]1C [ILICICOLIN C] | 13 µM | 1.9 µM | 34 µM | – |
| C/C(=C\Cc1c(O)c(Cl)c(C)c(C=O)c1O)CC/C=C(\C)[C@@H]1C[C@H](O)C(C)(C)O1 | 11 µM | 0.72 µM | 12 µM | – |
| C/C(=C\Cc1c(O)c(Cl)c(C)c(C(=O)O)c1O)CC/C=C(\C)CC[C@H](O)C(C)(C)O | 49 µM | 20 µM | > 60 µM | – |
| C/C(=C\Cc1c(O)c(Cl)c(C)c(C=O)c1O)CC[C@H]1C(C)(C)C(=O)CC[C@@]1(C)O | > 60 µM | 11 µM | > 60 µM | – |
| C/C(=C\Cc1c(O)c(Cl)c(C)c(C=O)c1O)CC/C(C)=C(\C)C(C)CCCO (stereo not given) | 7.5 µM | 32 µM | 12 µM | – |
| Cc1c(-c2ccc(-c3ccccc3F)cc2)nc2ccc(F)cc2c1C(=O)O [BREQUINAR] | – | – | – | IC50 ([1]; mda-mb-468): 0.082 µM; Activity [21]: Toxic; Activity [22]: Toxic; IC50 ([3]; mda-mb-231): 0.31 µM |
| C=C(C)[C@@H](O)CC/C(C)=C/CC/C(C)=C/Cc1c(O)c(Cl)c(C)c(C=O)c1O | 1.7 µM | 0.39 µM | 3.3 µM | – |
| C/C(O)=C(\C#N)C(=O)Nc1ccc(C(F)(F)F)cc1 [TERIFLUNOMIDE] | > 20 µM | – | 14 µM | inhibition [23]: Active |
| C/C(=C\Cc1c(O)c(Cl)c(C)c(C=O)c1O)CC[C@H]1C(C)(C)C(=O)CC[C@]1(C)O | > 60 µM | 34 µM | > 60 µM | – |
| C/C(=C\Cc1c(O)cc(C)c(C=O)c1O)CC/C=C(\C)CCC(=O)C(C)(C)O | 57 µM | 7.9 µM | > 60 µM | – |
| Cc1c(Cl)c2c(c(O)c1C=O)C[C@H]([C@@](C)(O)/C=C/[C@@]1(C)[C@H](C)CCC(=O)[C@@H]1C)O2 | 26 µM | > 60 µM | 25 µM | – |
| CC(/C=C/[C@@]1(C)[C@H](C)CCC(=O)[C@@H]1C)=C\Cc1c(O)cc(C)c(C=O)c1O | 38 µM | 42 µM | > 60 µM | – |
